Reference: patent US4210648A, “II-Aminoacyl-5,11-dihydro-6H-pyrido(2,3-B) (1,4)benzodiazepin-6-ones and salts thereof” (Boehringer Ingelheim GmbH, priority 1977, dated 1980)

Assays:
[1] = system: stress ulcers; experiment: inhibiting effect on the formation of stress ulcers in rats; format: in vivo
Procedure: (§1) The compounds were examined with regard to their inhibiting effect on the formation of stress ulcers in rats and their spasmolytic effect, related to atropine, with consideration of their acute toxicity.
The inhibiting effect on the formation of stress ulcers in rats was determined according to the method of K. Takagi and S. Okabe, Jap.Journ.Pharmac. 18, pp. 9 to 18 (1968). Fed female rats with a body weight between 220 and 260 gm were individually put into small wire cages and were subsequently kept vertically submerged in a water bath which was kept constant at a temperature of 23° C. for 16 hours, so that only the heads and the breastbones of the animals were above the water surface. The test compounds were administered perorally 5 to 10 minutes before. With each substance five animals were treated. 1 ml of a 0.9% physiological sodium chloride solution or 1 ml of a 1% tylose solution was administered to the control animals in the same way. After 18 hours the animals were killed by an overdose of ethyl chloride, the stomachs were excised, cut along the big curvature and spread on a cork plate. The evaluation was carried out according to the methods of Marazzi-Uberti and Turba, Med. Exp. 4, pp. 284 to 292 (1961), and Takagi and Okabe (supra).

[2] = system: guinea pig colon; experiment: spasmolytic effect in vitro on the guinea pig colon (acetylcholine-induced spasms; comparison atropinesulfate); details: relative to atropine = 1
Procedure: as §1
(§2) The spasmolytic effect was determined in vitro on the guinea pig colon, using the experimental arrangement according to R. Magnus, Pflugers Archiv, 102, pp. 123 (1904). Acetylcholine was taken to induce spasms, the substance for comparison was atropinesulfate. The spasticum was administered one minute before the administration of the spasmolytic substance, and the spasmolytic was allowed to take effect for 1 minute. […] The acute toxicity was determined after peroral administration of the test substance to fasted white mice with a body weight of 18 to 20 gm. The observation period was 14 days. For each dosage a group of six mice was used.

[3] = acute toxicity after peroral administration to mice; format: in vivo; details: in vivo, po, mouse, observation 14 days
Procedure: as §2

[4] = system: mouse; experiment: as above; format: in vivo
Procedure: as §2

SMILES | Ulcer-inhibition in % (rat) after peroral administr. of 12.5 mg/kg [1] [%] | Ulcer-inhibition in % (rat) after peroral administr. of 25 mg/kg [1] [%] | Ulcer-inhibition in % (rat) after peroral administr. of 50 mg/kg [1] [%] | Spasmolysis (acetylcholine) with regard to Atropin = 1 [2] | LD50 at 336 h [3] [mg/kg] | animals died at 1500 mg/kg [4] | animals died at 1000 mg/kg [4] | animals died at 2000 mg/kg ([4]; 2000 mg/kg)
CCN1CCCC1CNCC(=O)N1c2ccccc2C(=O)N(C)c2cccnc21 (stereo not drawn) [A, 11-{[(1-Ethyl-2-pyrrolidinyl)methylamino]acetyl}-5,11-dihydro-5-methyl-6H-pyrido[2,3-b][1,4]benzodiazepin-6-one] | 90 | 90 | 95 | 1/250 | ~1500 | 2 out of 4 | – | –
COC1CCN(CC(=O)N2c3ccccc3C(=O)Nc3cccnc32)CC1 [B, 5,11-Dihydro-11-[(4-methoxypiperidino)acetyl]-6H-pyrido [2,3-b]-[1,4]benzodiazepin-6-one] | 53 | 79 | 89 | 1/125 | > 1000 | – | 2 out of 5 | –
CC1CCCCN1CCC(=O)N1c2ccccc2C(=O)Nc2cccnc21 (stereo not drawn) [C, 5,11-Dihydro-11-[3-(2-methylpiperidino)propionyl]-6H-pyrido-[2,3-b][1,4]benzodiazepin-6-one] | 79 | 84 | 95 | 1/50 | > 1000 | – | 1 out of 5 | –
O=C1Nc2cccnc2N(C(=O)CCN2CCCCC2)c2ccccc21 [D, 5,11-Dihydro-11-(3-piperidinopropionyl)-6H-pyrido [2,3-b][1,4]-benzodiazepin-6-one] | 58 | 69 | 84 | 1/125 | ~2000 | – | – | 3 out of 5
O=C1Nc2cccnc2N(C(=O)CCCN2CCCC2)c2ccccc21 [E, 5,11-Dihydro-11-(4-pyrrolidino-butyryl)-6H-pyrido[2,3-b][1,4]-benzodiazepin-6-one] | 18 | 58 | 79 | 1/190 | > 1500 | 1 out of 6 | – | –
